Residue numbers refer to the chain shown, from its start.

In one experiment the target is T1, A266G Slo2.1 channels (Homo sapiens, UniProt Q6UVM3, A266G).
T1 sequence (Q6UVM3 1-1135 A266G): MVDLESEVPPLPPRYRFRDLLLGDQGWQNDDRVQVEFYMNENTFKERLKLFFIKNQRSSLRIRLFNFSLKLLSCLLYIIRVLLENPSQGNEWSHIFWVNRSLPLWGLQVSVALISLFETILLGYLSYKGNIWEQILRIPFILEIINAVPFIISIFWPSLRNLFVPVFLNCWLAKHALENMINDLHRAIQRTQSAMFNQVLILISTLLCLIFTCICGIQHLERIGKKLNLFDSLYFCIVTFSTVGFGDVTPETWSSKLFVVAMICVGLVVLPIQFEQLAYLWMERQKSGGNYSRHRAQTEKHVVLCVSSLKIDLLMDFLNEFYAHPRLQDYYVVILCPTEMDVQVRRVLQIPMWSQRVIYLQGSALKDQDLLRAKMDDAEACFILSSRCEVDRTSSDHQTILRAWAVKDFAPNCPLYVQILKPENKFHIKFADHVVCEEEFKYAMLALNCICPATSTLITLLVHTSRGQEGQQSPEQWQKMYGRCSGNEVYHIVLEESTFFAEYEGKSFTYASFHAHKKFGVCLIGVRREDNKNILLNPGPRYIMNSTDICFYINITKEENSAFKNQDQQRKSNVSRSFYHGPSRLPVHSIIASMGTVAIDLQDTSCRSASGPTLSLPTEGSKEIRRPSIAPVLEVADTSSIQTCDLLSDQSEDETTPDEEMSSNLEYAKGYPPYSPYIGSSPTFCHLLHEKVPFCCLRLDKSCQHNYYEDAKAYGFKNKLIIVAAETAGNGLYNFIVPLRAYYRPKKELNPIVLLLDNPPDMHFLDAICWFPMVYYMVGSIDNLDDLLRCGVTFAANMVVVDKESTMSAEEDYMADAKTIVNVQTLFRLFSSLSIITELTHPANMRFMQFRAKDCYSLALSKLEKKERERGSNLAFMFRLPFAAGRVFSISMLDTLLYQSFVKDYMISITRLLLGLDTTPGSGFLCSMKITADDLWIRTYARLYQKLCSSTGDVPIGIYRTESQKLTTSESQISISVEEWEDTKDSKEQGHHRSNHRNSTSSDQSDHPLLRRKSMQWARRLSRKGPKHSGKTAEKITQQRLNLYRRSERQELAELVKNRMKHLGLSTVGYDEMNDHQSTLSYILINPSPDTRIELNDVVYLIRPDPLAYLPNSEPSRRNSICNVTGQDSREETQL
Kind of experiment: Activation of ISlo2.1 by NFA, two-electrode voltage clamp in oocytes. In kind it is cell-based. (In general: Two-electrode voltage clamp is typically applied to oocytes expressing channels or transporters.)

The target of a further experiment is T2, F258A Slo2.1 channels (Homo sapiens, UniProt Q6UVM3, F258A).
T2 sequence (Q6UVM3 1-1135 F258A): T1 sequence (Q6UVM3 1-1135 A266G) with F258A, G266A
Described as above. In kind it is cell-based.

As for `O=C(O)c1cccnc1Nc1cccc(C(F)(F)F)c1` [NFA, niflumic acid], the values for the EC50 at A266G Slo2.1 channels and on F258A Slo2.1 channels were 380 ± 30 µM and 400 ± 50 µM, respectively. For the same compound, the “Hill coefficient nH of NFA activation” value on A266G Slo2.1 channels (A266G) worked out at 1.2 ± 0.03; on F258A Slo2.1 channels (F258A), 1.2 ± 0.08.
